From patent US6713607B2 (Wyeth, priority 1994, dated 2004)
One block for each compound: values may come before it.

How the values were obtained:
[1] = target: 210 kDa Protein (Homo sapiens, UniProt P42345); assay: Modified isolation procedure: no exogenous FKBP, streptavidin-conjugated resin in place of glutathione resin; type: binding
[2] = test system: mitogen-stimulated thymocyte proliferation; assay: LAF, mitogen-stimulated thymocyte proliferation assay; type: cell-based, murine
[3] = target: T1, 210 kDa Protein (Homo sapiens, UniProt P42345+P62942); assay: Affinity isolation of the 210 kDa protein from Molt 4 membrane preparations with GST-FKBP12 complexed to rapamycin or analog (binding of analog-FKBP12 complexes); details: isolation procedure of Example 1, Molt 4 cells
T1 construct: These proteins are isolated from membrane preparations of Molt 4 T cell leukemia; endogenous in cells; host or cells: Molt 4 cells (CHAPSO-solubilized membrane fraction); The partner GST-FKBP12 was made in house in recombinant E. coli (pGEX-FKBP)
Description: Molt 4 cells (1×10^9) were grown in standard media (RPMI 1640 containing 100 U/ml pennicillin, 100 ug/ml L-glutamine, 10% FCS). The cells were harvested and rinsed 3× with PBS (50 mM phosphate buffer, pH 7.0, 150 mM NaCl), flash frozen in dry-ice ethanol bath and stored at −80° C. On ice, the cells were thawed and lysed using a dounce homogenizer with B pestle in 5 ml of buffer A (10 mM Hepes, pH 7.5, 20 mM KCl, 1 mM EDTA, 0.4 mM PMSF and 2 mM 2-ME). After the debris was cleared by centrifugation at 1600 g for 10 min. and the membrane fraction was concentrated by 100,000 g centrifugation (1 hour), the 100,000 g pellet was incubated in 3 ml buffer B (50 mM Tris, pH 7.2, 100 mM NaCl, 20 mM KCl, 0.2 mM PMSF, 1 mM 2-ME, 2 mM CaCl2, 2 mM MgCl2, 5 μg/ml aprotinin, leupeptin, pepstatin A and antipain), containing 12 mM CHAPSO for two hours at 4° C. The solubilized membrane proteins were separated from the debris by a 100,000 g centrifugation. […] The supernatant was then incubated for 2 hours at 4° C. with 100 ul glutathione resin (1:1 Buffer B). Nonspecific proteins were rinsed 5× with buffer C (buffer B+0.1% Triton×100) and the proteins eluted from the resin in Laemli buffer by incubation at 95° C. for 3 minutes and microcentrifugation. The proteins were separated by size using a 7% SDS-PAGE followed by silver stain.

[4] = target: FKBP12 (Homo sapiens, UniProt P62942); assay: Inhibition of PPIase activity of FKBP12; type: biochemical; details: read-out: PPlase(Ki)
FKBP12, sequence (P62942 whole entry, species assumed): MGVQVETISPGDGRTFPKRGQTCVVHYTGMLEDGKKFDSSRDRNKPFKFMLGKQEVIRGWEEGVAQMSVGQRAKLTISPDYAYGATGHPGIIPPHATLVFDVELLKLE

T1 sequence (P62942 whole entry, other chains not shown): as the sequence (P62942 whole entry, species assumed) above

Structure (SMILES): COC1CC2CCC(C)C(O)(O2)C(=O)C(=O)N2CCCCC2C(=O)OC(C(C)CC2CCC(OC(=O)CNC(=O)CCCCC3SCC4NC(=O)NC43)C(OC)C2)CC(=O)C(C)C=C(C)C(O)C(OC)C(=O)C(C)CC(C)C=CC=CC=C1C (stereo not shown) [rapamycin-42-biotin glycinate ester]
- 210 kDa protein isolated by modified procedure (in words) [1]: Only background levels
- immunosuppressive activity in the LAF assay (in words) [2]: equivalent immunosuppressive activity

Structure (SMILES): CO[C@H]1C[C@@H]2CC[C@@H](C)[C@@](O)(O2)C(=O)C(=O)N2CCCC[C@H]2C(=O)O[C@H]([C@H](C)C[C@@H]2CC[C@@H](O)[C@H](OC)C2)CC(=O)[C@H](C)/C=C(\C)[C@@H](O)[C@@H](OC)C(=O)[C@H](C)C[C@H](C)/C=C/C=C/C=C/1C [RAPA, Rapamycin]
- IC50 ([2]; Mus musculus, Thymocyte): 6 nM

Structure (SMILES): C=CC[C@@H]1/C=C(\C)C[C@H](C)C[C@H](OC)[C@H]2O[C@@](O)(C(=O)C(=O)N3CCCC[C@H]3C(=O)O[C@H](/C(C)=C/[C@@H]3CC[C@@H](O)[C@H](OC)C3)[C@H](C)[C@@H](O)CC1=O)[C@H](C)C[C@@H]2OC [FK506]
- IC50 ([2]; Mus musculus, Thymocyte): 3 nM

- 210 kDa protein isolated with compound:GST-FKBP12 complex (in words) [3]: same proteins were isolated
- Ki [4]: 4.4 nM
Structure (SMILES): COC1CC2CCC(C)C(O)(O2)C(=O)C(=O)N2CCCCC2C(=O)OC(C(C)CC2CCC(O)C(OC)C2)CC(=O)C(C)/C=C(\C)C(O)CC(=O)C(C)CC(C)/C=C/C=C/C=C/1C (stereo not shown) [demethoxyrapamycin]
- IC50 ([2]; mitogen-stimulated thymocyte proliferation, FK506: mechanism of action is different): 58 nM
